Here are results for 2 molecules from publication PMC11266932, “Enhanced absorption of prenylated cinnamic acid derivatives from Brazilian green propolis by turmeric in humans and rats” (Food Science & Nutrition, 2024).

SMILES strings stand for the structures. Where two headings read alike, the source gives them in different places.

Data set [1] addresses T1, breast cancer resistance protein (BCRP) (Homo sapiens, UniProt Q9UNQ0).
T1 construct: host or cells: MDCK II (Madin-Darby canine kidney) cells overexpressing BCRP
T1 sequence (Q9UNQ0 1-655): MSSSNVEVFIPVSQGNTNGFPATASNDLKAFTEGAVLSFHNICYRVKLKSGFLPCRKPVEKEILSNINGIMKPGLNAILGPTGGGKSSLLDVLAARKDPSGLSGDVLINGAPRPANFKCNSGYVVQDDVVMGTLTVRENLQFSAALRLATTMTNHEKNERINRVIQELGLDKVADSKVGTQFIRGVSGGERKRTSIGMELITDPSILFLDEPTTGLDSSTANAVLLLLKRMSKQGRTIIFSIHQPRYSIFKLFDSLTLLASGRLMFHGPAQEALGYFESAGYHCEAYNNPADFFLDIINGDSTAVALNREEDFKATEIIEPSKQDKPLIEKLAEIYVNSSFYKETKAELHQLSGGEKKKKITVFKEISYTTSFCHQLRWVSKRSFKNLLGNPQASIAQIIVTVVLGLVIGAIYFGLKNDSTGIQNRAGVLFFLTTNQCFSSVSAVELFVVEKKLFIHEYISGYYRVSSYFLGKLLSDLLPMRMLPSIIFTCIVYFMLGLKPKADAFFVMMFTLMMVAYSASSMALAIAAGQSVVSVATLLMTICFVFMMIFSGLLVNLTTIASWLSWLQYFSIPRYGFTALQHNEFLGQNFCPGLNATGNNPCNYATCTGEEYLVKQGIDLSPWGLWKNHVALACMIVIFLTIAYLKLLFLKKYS
The data set can be described thus: Bidirectional transport assay across MDCK II-BCRP cell monolayer. In kind it is in vitro ADME. The conditions noted are these: for Net flux ratio: ER of MDCK II‐BCRP divided by ER of parent MDCK II, >2 = transporter-mediated efflux; for substrate of BCRP (in words): bidirectional transport assay, net flux ratio criterion. How it is done:
(§1) The Madin‐Darby canine kidney (MDCK II) cell line and MDCK II cells overexpressing multidrug resistance 1 (MDR1) or breast cancer resistance protein (BCRP) were purchased from the Netherlands Cancer Institute (Amsterdam, Netherlands) and SOLVO Biotechnology (Szeged, Hungary), respectively. The cell lines were routinely cultured in Dulbecco's modified Eagle's medium (DMEM) containing 10% fetal bovine serum and 1% penicillin/streptomycin at 37°C in 5% CO2. All cells were seeded in a feeder tray at a density of 3–6 × 10^4 cells/well and grown for 3–4 days. On the day of the transport study, cell monolayers were washed with Hanks' balanced salt solution (HBSS) buffer containing 0.1% BSA (pH 7.4) and incubated at 37°C for 20 min. Artepillin C and drupanin dissolved in DMSO (10 mM) were added to the transport buffer (HBSS containing 10 mM HEPES, 0.2% glucose, 0.1% BSA, pH 7.4) to a final concentration of 10 μM and then loaded into the apical or basolateral chamber. After 120 min of incubation, 150 μL of the aliquots were collected from the donor and receiver chambers and mixed with an equal volume of 50% methanol. After centrifugation at 3000 rpm for 10 min at 4°C, the supernatants were filtered and subjected to LC–MS/MS analysis.
(§2) The in vitro samples were analyzed using HPLC (LC‐20A, Shimadzu, Kyoto, Japan) with a reversed‐phase column (Inertsil ODS‐3, 2.1 × 33 mm, ID. 3 μm, GL Sciences, Tokyo, Japan) held at 40°C. The mobile solvents used were water with 10 mM ammonium acetate (pH 4.0, A) and methanol (B) pumped at a flow rate of 0.4 mL/min. The following gradient was employed: 10%–90% B (0–0.5 min), 90% B (0.5–2.5 min), and 10% B (2.5–4 min). The eluent was monitored using a triple quadrupole mass spectrometer (API 4000, AB Sciex, Framingham, MA, USA) incorporating an electrospray ion source (ESI) operating in the multiple reaction monitoring mode. The ESI source was operated in negative ionization mode at 600°C with a spray voltage of −4.5 kV. The curtain gas (nitrogen), collision gas (nitrogen), nebulizer gas (whole air), and drying gas (whole air) were set at 40, 5, 50, and 70 psi, respectively. […] Artepillin C and drupanin were diluted in 50% methanol to concentrations of 1.6, 3.2, 8, 40, 200, 1000, and 2000 nM and were used as external standards. Sulfaphenazole (0.2 μM) was used as an internal standard.
(§3) The apparent permeability coefficients (Papp) for both directions, from the apical side to the basolateral side (A to B) and from the basolateral side to the apical side (B to A) in the cell monolayer, were calculated using the following equation: (1) Papp=dQ/dt/A×C0 where dQ/dt is the permeation rate (nmol/s), A is the membrane area (cm^2), and C0 is the initial concentration of the compound in the donor compartment (nM). The efflux ratios (ER) in the B‐to‐A and A‐to‐B directions were determined using the following equation: (2) ER=PappBtoA/PappAtoB
(§4) Net flux ratios were calculated by dividing the ER obtained from MDCK II‐MDR1 (or BCRP) cells by that obtained from the parent MDCK II cells.

The test system of the next data set is MDCK II cell monolayer. The data set can be described thus: Bidirectional transport assay across parent MDCK II cell monolayer. In kind it is in vitro ADME, canine. Particulars: 10 μM; for Papp MDCK II A to B / Papp MDCK II B to A: 120 min, mean ± SE, n = 2. The protocol: as §1, §2, §3
In a further data set the target is T2, BCRP (Homo sapiens, UniProt Q9UNQ0).
T2 construct: host or cells: MDCK II (Madin-Darby canine kidney) cells overexpressing BCRP
T2 sequence (Q9UNQ0 1-655): T1 sequence (Q9UNQ0 1-655)
The data set can be described thus: Bidirectional transport assay across MDCK II-BCRP cell monolayer. Particulars: dog, pH 7.4. In kind it is in vitro ADME. How it is done:
as §1, §2, §3, §4

For the next data set, the target named is T3, MDR1 (P-gp) (Homo sapiens, UniProt P08183).
T3 construct: host or cells: MDCK II (Madin-Darby canine kidney) cells overexpressing MDR1
T3 sequence (P08183 whole entry): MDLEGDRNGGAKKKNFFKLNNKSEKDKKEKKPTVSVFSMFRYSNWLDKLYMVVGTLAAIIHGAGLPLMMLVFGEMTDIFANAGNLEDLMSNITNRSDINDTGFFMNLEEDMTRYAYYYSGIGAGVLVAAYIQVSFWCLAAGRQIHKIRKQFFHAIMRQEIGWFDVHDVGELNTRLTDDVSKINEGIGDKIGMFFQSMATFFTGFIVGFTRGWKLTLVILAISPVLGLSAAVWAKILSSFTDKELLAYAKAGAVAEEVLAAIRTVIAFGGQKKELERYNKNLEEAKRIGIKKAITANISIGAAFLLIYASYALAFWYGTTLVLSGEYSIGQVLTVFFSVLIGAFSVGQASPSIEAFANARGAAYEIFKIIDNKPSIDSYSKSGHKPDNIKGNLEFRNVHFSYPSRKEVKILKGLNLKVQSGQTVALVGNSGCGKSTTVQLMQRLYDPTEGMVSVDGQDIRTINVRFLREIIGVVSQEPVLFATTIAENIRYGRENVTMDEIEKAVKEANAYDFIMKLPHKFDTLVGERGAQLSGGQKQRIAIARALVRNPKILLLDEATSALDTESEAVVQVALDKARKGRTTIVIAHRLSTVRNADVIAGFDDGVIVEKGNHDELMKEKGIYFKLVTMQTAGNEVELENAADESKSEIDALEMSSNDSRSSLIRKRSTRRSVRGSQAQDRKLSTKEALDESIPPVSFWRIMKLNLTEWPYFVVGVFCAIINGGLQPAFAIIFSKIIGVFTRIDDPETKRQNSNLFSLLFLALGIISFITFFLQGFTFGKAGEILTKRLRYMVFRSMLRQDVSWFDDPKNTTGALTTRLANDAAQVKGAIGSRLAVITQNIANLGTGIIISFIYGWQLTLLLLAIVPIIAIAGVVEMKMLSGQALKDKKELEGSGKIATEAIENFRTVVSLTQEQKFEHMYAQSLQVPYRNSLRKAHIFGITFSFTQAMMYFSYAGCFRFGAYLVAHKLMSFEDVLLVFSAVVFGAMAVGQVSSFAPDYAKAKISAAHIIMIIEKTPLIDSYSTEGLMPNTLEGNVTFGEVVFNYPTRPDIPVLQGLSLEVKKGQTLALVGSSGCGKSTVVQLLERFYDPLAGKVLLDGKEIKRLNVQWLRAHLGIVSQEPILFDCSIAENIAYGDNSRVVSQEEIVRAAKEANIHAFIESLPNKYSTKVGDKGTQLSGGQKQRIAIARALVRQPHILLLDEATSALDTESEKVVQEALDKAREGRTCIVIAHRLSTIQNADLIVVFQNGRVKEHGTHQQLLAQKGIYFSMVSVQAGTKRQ
The data set can be described thus: Bidirectional transport assay across MDCK II-MDR1 cell monolayer. It counts as in vitro ADME. Particulars: dog, MDCK-MDR1, pH 7.4. The protocol:
as §1, §2, §3, §4

Data set [2] in a line: Bidirectional transport assay across parent MDCK II cell monolayer. It counts as in vitro ADME, canine. Particulars: dog; for efflux ratio at 120 min, 10 μM: MDCK, pH 7.4, 10 μM, Papp B to A / Papp A to B, read-out: Flux ratio (MDCK II) (efflux ratio, ER); for Papp A→B at 120 min, 10 μM / Papp B→A at 120 min, 10 μM: mean ± SE, n = 2. How it is done:
as §1, §2, §3

The mark [3] stands for this setting: 10 μM, 120 min, mean ± SE, n = 2.
The mark [4] stands for this setting: parent cells of the BCRP experiment (Table 3).
[5] abbreviates: parent cells of the MDR1 experiment (Table 2).
Setting [6] is: MDCK-MDR1, pH 7.4, parent cells of the MDR1 experiment (Table 2).
[7] abbreviates: pH 7.4, parent cells of the BCRP experiment (Table 3).

In the case of `CC(C)=CCc1cc(/C=C/C(=O)O)cc(CC=C(C)C)c1O` [artepillin C], in data set [1] (setting [3]), the “Papp MDCK II‐BCRP A to B” value is 9.7 ± 0.2 10^−6 cm/s and the “Papp MDCK II‐BCRP B to A” value is listed as 16.0 ± 0.01 10^−6 cm/s. In data set [1] (10 μM, Papp B to A / Papp A to B), the “Flux ratio (MDCK II‐BCRP) (efflux ratio, ER)” value is reported as 1.6. Moreover, in data set [1], the Net flux ratio came to 2.0 and the “substrate of BCRP (in words)” value was “substrates”. Moreover, in the data set with MDCK II cell monolayer (setting [4]), the “Papp MDCK II A to B” value is recorded as 13.0 ± 0.8 10^−6 cm/s and the “Papp MDCK II B to A” value is listed as 10.8 ± 0.1 10^−6 cm/s. In addition, in the data set with MDCK II cell monolayer (setting [5]), the “Papp MDCK II A to B” value is 14.0 ± 0.7 10^−6 cm/s and the “Papp MDCK II B to A” value was 11.2 ± 1.2 10^−6 cm/s. Further, the “Flux ratio (MDCK II) (efflux ratio, ER)” value with MDCK II cell monolayer (Papp B to A / Papp A to B, Table 2 experiment) came out at 0.8.

As a reminder, the Papp A→B is how fast a substance crosses the layer from the apical side. In general, Papp B→A refers to the apparent permeability from the basolateral to the apical side of a cell layer. For `CC(C)=CCc1cc(/C=C/C(=O)O)ccc1O` [drupanin], the Papp A→B at 120 min, 10 μM is 1.3 ± 0.1 ×10⁻⁶ cm/s at BCRP (setting [3]), 13.3 ± 1.4 ×10⁻⁶ cm/s at MDR1 (P-gp) (setting [3]), 11.1 ± 0.2 ×10⁻⁶ cm/s in data set [2] (setting [6]) and 11.6 ± 0.1 ×10⁻⁶ cm/s in data set [2] (setting [7]). Besides, the Papp B→A at 120 min, 10 μM at BCRP (setting [3]) came out at 20.9 ± 0.1 ×10⁻⁶ cm/s; at MDR1 (P-gp) (setting [3]), 11.2 ± 0.2 ×10⁻⁶ cm/s; in data set [2] (setting [6]), 9.9 ± 0.2 ×10⁻⁶ cm/s; in data set [2] (setting [7]) it was 8.9 ± 0.4 ×10⁻⁶ cm/s. For the same molecule, the efflux ratio at 120 min, 10 μM came out at 15.7 on BCRP (read-out: Flux ratio (MDCK II‐BCRP) (efflux ratio, ER)); 0.8 on MDR1 (P-gp) (read-out: Flux ratio (MDCK II‐MDR1) (efflux ratio, ER)); 0.9 in data set [2] (Table 2 experiment); 0.8 in data set [2] (Table 3 experiment). In data set [1], the Net flux ratio is 20.4. For the same molecule, the “substrate of BCRP (in words)” value in data set [1] is on record as “substrates”.
